Reference: ChEMBL document CHEMBL1201862, “PubChem BioAssay data set” (2004)
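Step 1: Grow cells in 96-well plates. Step 2: Expose to compound for 48 hours at 5 concentrations. Step 3: Interpolate endpoints linearly; if unreached, use highest concentration. At the GI50, growth is halved.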 Active and inactive are the calls of the source. No stated cut-off is given here; in the data, active = GI50 up to about 1.1 µM and inactive = higher.

What was measured:
Experiment in all cases: NCI-60 cell line screen, 48 h
PC-3 = system: PC-3
SN12C = system: SN12C
RPMI-8226 = system: RPMI-8226
OVCAR-5 = system: OVCAR-5
CCRF-CEM = system: CCRF-CEM
K562 = system: K562
LOX IMVI = system: LOX IMVI
UO-31 = system: UO-31
M14 = system: M14
CAKI-1 = system: CAKI-1
SF-268 = system: SF-268
NCI-H226 = system: NCI-H226
SK-MEL-2 = system: SK-MEL-2
BT-549 = system: BT-549
HCT-15 = system: HCT-15
KM12 = system: KM12
NCI-H23 = system: NCI-H23
ACHN = system: ACHN
HL-60 = system: HL-60

| SMILES | GI50 (PC-3) | GI50 (SN12C) | GI50 (RPMI-8226) | GI50 (OVCAR-5) | GI50 (CCRF-CEM) | GI50 (K562) | GI50 (LOX IMVI) | GI50 (UO-31) | GI50 (M14) | GI50 (CAKI-1) | GI50 (SF-268) | GI50 (NCI-H226) | GI50 (SK-MEL-2) | GI50 (BT-549) | GI50 (HCT-15) [µM] | GI50 (KM12) | GI50 (NCI-H23) | GI50 (ACHN) | GI50 (HL-60) |
| --- | --- | --- | --- | --- | --- | --- | --- | --- | --- | --- | --- | --- | --- | --- | --- | --- | --- | --- | --- |
| CC(Cc1ccc(O)cc1)NCC(O)c1ccc(O)c(O)c1 (stereo not given) | > 100 µM (inactive) | > 100 µM (inactive) | > 100 µM (inactive) | > 100 µM (inactive) | > 100 µM (inactive) | > 100 µM (inactive) | > 100 µM (inactive) | > 100 µM (inactive) | > 100 µM (inactive) | > 100 µM (inactive) | > 100 µM (inactive) | > 100 µM (inactive) | > 100 µM (inactive) | > 100 µM (inactive) | > 100 | > 100 µM (inactive) | > 100 µM (inactive) | > 100 µM (inactive) |  |
| C/C=C\C(CC(=O)NCCC1CN(S(=O)(=O)c2ccc(C)cc2)c2ccccc21)CC(=O)OC (stereo not given) | > 100 µM (inactive) |  | > 100 µM (inactive) | > 100 µM (inactive) |  | > 100 µM (inactive) |  | > 100 µM (inactive) | > 100 µM (inactive) | > 100 µM (inactive) | > 100 µM (inactive) |  | > 100 µM (inactive) | > 100 µM (inactive) | > 100 | > 100 µM (inactive) | > 100 µM (inactive) | > 100 µM (inactive) |  |
| Nc1ncnc2c1ncn2[C@H]1CC[C@@H](NO)C1 | > 100 µM (inactive) | > 100 µM (inactive) | > 100 µM (inactive) | > 100 µM (inactive) | > 100 µM (inactive) | > 100 µM (inactive) | > 100 µM (inactive) | > 100 µM (inactive) | > 100 µM (inactive) | > 100 µM (inactive) | > 100 µM (inactive) | > 100 µM (inactive) | > 100 µM (inactive) | > 100 µM (inactive) | > 100 | > 100 µM (inactive) | > 100 µM (inactive) | > 100 µM (inactive) |  |
| Cc1nc2c(sc3nc4ccccc4n32)c(=O)[nH]1 | > 100 µM (inactive) |  | > 100 µM (inactive) | > 100 µM (inactive) | > 100 µM (inactive) |  | > 100 µM (inactive) | > 100 µM (inactive) | > 100 µM (inactive) | > 100 µM (inactive) | > 100 µM (inactive) | > 100 µM (inactive) | > 100 µM (inactive) | > 100 µM (inactive) | > 100 | > 100 µM (inactive) | > 100 µM (inactive) | > 100 µM (inactive) |  |
| CC(C)(C)Nc1noc(=O)n1C(C)(C)C | > 100 µM (inactive) | > 100 µM (inactive) | > 100 µM (inactive) | > 100 µM (inactive) | > 100 µM (inactive) | > 100 µM (inactive) | > 100 µM (inactive) | > 100 µM (inactive) | > 100 µM (inactive) | > 100 µM (inactive) | > 100 µM (inactive) | > 100 µM (inactive) | > 100 µM (inactive) |  | > 100 | > 100 µM (inactive) | > 100 µM (inactive) | > 100 µM (inactive) | > 100 µM (inactive) |
| COC(=O)CCCc1ccc2c(c1)CC1(C2)Cc2cc3c(cc2C1)CCCC3 | 36.8 µM (inactive) | 40.6 µM (inactive) | 16 µM (inactive) | > 100 µM (inactive) |  | 22.9 µM (inactive) | 30.3 µM (inactive) | 86.7 µM (inactive) | 24.7 µM (inactive) |  |  | 38.1 µM (inactive) | 22.6 µM (inactive) |  | 14 | 36.9 µM (inactive) | 61.9 µM (inactive) | 42.7 µM (inactive) | 12.4 µM (inactive) |
| CCCNC(=O)N(C)C(=O)N1N=C(c2ccccc2)C1c1ccccc1 (stereo not given) | 56.9 µM (inactive) | 37 µM (inactive) | 38.2 µM (inactive) |  | 17.7 µM (inactive) | 49 µM (inactive) | 75.5 µM (inactive) | 50.4 µM (inactive) | > 100 µM (inactive) | 75.3 µM (inactive) |  | > 100 µM (inactive) | > 100 µM (inactive) |  | 45.3 | 40.5 µM (inactive) | > 100 µM (inactive) | 90.6 µM (inactive) |  |
| O=C1CCCc2cc3c(cc21)CC1(C3)Cc2ccc3c(c2C1)C(=O)CCC3 (stereo not given) | 21.7 µM (inactive) | 23.6 µM (inactive) | 7.59 µM (inactive) | > 100 µM (inactive) | 6.92 µM (inactive) | 3.31 µM (inactive) | 11.7 µM (inactive) | 32.4 µM (inactive) | 12.7 µM (inactive) | 10.5 µM (inactive) | 21.9 µM (inactive) | 6.38 µM (inactive) | 24.2 µM (inactive) |  | 45.2 | 14 µM (inactive) | 22.5 µM (inactive) | 5.18 µM (inactive) | 5.18 µM (inactive) |
| CC(=O)NC1C(OC(C)C(=O)NC(C)C(=O)NC(CCC(=O)NCCCCCNc2ccc([N+](=O)[O-])c3[nH]c4ccccc4c(=O)c23)C(N)=O)C(O)C(CO)OC1(C)OCc1ccccc1 (stereo not given) | > 100 µM (inactive) | > 100 µM (inactive) | 28.1 µM (inactive) | > 100 µM (inactive) | > 100 µM (inactive) | 45.3 µM (inactive) | > 100 µM (inactive) | 50.4 µM (inactive) | > 100 µM (inactive) | > 100 µM (inactive) | > 100 µM (inactive) | 89.9 µM (inactive) | > 100 µM (inactive) | > 100 µM (inactive) | 73.8 | 79.3 µM (inactive) | > 100 µM (inactive) | > 100 µM (inactive) |  |
| O=[N+]([O-])c1cccnc1NCC1(CO)CCCC1 | 19.1 µM (inactive) | 22.3 µM (inactive) | 20.2 µM (inactive) | 31.6 µM (inactive) | 29.4 µM (inactive) | 18.5 µM (inactive) | 16.7 µM (inactive) |  |  |  | 32.2 µM (inactive) | 25.6 µM (inactive) |  |  | 18.5 |  | 32.6 µM (inactive) | 27 µM (inactive) | 22.4 µM (inactive) |
| O=C1[C@H](O)[C@@H]2C(O)O[C@H]3[C@@H]2N1C[C@H]3[Si](c1ccccc1)(c1ccccc1)c1ccccc1 (stereo not given in full) | > 100 µM (inactive) |  | > 100 µM (inactive) | > 100 µM (inactive) |  | > 100 µM (inactive) | > 100 µM (inactive) | > 100 µM (inactive) | > 100 µM (inactive) | > 100 µM (inactive) | > 100 µM (inactive) | > 100 µM (inactive) | > 100 µM (inactive) | > 100 µM (inactive) | > 100 | > 100 µM (inactive) | > 100 µM (inactive) | > 100 µM (inactive) |  |
| Cc1ccc(C2(c3ccc(C)c(O)c3C)CCN(C)CC2)c(C)c1O | 35 µM (inactive) | 37.2 µM (inactive) | > 100 µM (inactive) | > 100 µM (inactive) | 60.1 µM (inactive) | 84.7 µM (inactive) | 34.8 µM (inactive) | > 100 µM (inactive) | 45.8 µM (inactive) | > 100 µM (inactive) | > 100 µM (inactive) | > 100 µM (inactive) | 26.9 µM (inactive) | > 100 µM (inactive) | > 100 | 46.5 µM (inactive) | > 100 µM (inactive) | > 100 µM (inactive) |  |
| CCOC(=O)CCC(NC(=O)OCc1ccccc1)C(=O)NC(CCC(=O)OCC)C(=O)NC(CCC(=O)OCC)C(=O)NC(CCC(=O)OCC)C(=O)NC(CCC(=O)OCC)C(=O)OCC (stereo not given) | > 100 µM (inactive) | > 100 µM (inactive) | > 100 µM (inactive) | > 100 µM (inactive) | > 100 µM (inactive) |  | > 100 µM (inactive) | > 100 µM (inactive) | > 100 µM (inactive) | > 100 µM (inactive) |  |  | > 100 µM (inactive) | > 100 µM (inactive) | > 100 | > 100 µM (inactive) | > 100 µM (inactive) | > 100 µM (inactive) |  |
| CN(C)CCCNc1c(C#N)[n+]([O-])c2cc(Cl)ccc2[n+]1[O-] | 4.91 µM (inactive) | 17.9 µM (inactive) | 3.27 µM (inactive) | > 61.7 µM (inactive) | 3.21 µM (inactive) | 3.92 µM (inactive) | 10.2 µM (inactive) | 13.4 µM (inactive) | 8.13 µM (inactive) | 7.91 µM (inactive) | 8.89 µM (inactive) | 12.4 µM (inactive) | 9.62 µM (inactive) | 6.79 µM (inactive) | 3.75 | 7.73 µM (inactive) | 7.74 µM (inactive) | 5.5 µM (inactive) |  |
| O=C1C(=CNc2ccccc2Cl)C(=O)N(c2ccccc2)C(=O)N1c1ccccc1 | > 100 µM (inactive) | > 100 µM (inactive) | > 100 µM (inactive) | > 100 µM (inactive) | > 100 µM (inactive) | > 100 µM (inactive) | > 100 µM (inactive) | > 100 µM (inactive) | 92.7 µM (inactive) | > 100 µM (inactive) | > 100 µM (inactive) | > 100 µM (inactive) | 27.9 µM (inactive) | > 100 µM (inactive) | > 100 | > 100 µM (inactive) | > 100 µM (inactive) | > 100 µM (inactive) |  |
| C[C@@]12[C@H]3CC[C@@H]1[C@H](O)C(=O)N2CC3 | > 100 µM (inactive) |  | > 100 µM (inactive) | > 100 µM (inactive) | > 100 µM (inactive) | > 100 µM (inactive) | > 100 µM (inactive) | > 100 µM (inactive) | > 100 µM (inactive) | > 100 µM (inactive) | > 100 µM (inactive) | > 100 µM (inactive) | > 100 µM (inactive) |  | > 100 | > 100 µM (inactive) | > 100 µM (inactive) | > 100 µM (inactive) | > 100 µM (inactive) |
